# Experimental data published in patent US5834459A, “Alkyl-substituted compounds having dopamine receptor affinity” (Allelix Biopharmaceuticals Inc., priority 1996, dated 1998).
# pKi: −log10 of the molar value.
# Key:
# [1] = target: human D2 receptor (short isoform) (Homo sapiens, UniProt P14416); test: Receptor Binding Assay: displacement of 3H-spiperone, D2 receptor, for D2/D4 selectivity; settings: for D2/D4 (selectivity): ratio D2/D4, GH4 C1 cells with human D2 short vs HEK 298 cells with human D4.2, 3H-spiperone
# Sequence of human D2 receptor (short isoform) (P14416 with tags, fused parts or gaps DEL242-270): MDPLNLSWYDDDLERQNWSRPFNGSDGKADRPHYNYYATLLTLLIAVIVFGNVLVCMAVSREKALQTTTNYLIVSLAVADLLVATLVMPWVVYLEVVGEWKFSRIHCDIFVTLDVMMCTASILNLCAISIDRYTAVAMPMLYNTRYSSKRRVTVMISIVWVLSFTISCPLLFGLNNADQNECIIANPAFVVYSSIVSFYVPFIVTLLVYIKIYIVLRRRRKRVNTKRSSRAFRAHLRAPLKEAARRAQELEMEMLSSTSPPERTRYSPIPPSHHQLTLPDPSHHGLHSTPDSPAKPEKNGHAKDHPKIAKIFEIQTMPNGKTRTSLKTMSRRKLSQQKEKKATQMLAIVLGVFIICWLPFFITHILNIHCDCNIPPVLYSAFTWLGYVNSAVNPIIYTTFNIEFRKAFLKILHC
# Description: (§1) The potency of the test compound to reduce ^3 H-spiperone binding directly correlated to its binding affinity for the receptor.
# GH4 C1 (rat pituitary) cells stably transfected with the human D2 receptor (short isoform) were grown in CO2 independent media in roller bottles (1500 cm^2) for 10 days. 100 μM ZnSO4 was added to the cells (the D2 promoter being zinc inducible). After 16 hours, fresh media was added to allow the cells to recover for 24 hours. The cells were harvested using versene and then centrifuged in a Sorval centrifuge for 10 minutes, at 5000 rpm (GS3 rotor). Pellets were quickly frozen in liquid nitrogen and stored at -80° C. until used in the binding assays. When used in the assay, cells were thawed on ice for 20 minutes. […] The receptor protein concentration was determined using the Pierce BCA assay.
# (§2) The tubes were vortexed and incubated at room temperature for 90 minutes. The binding reaction was stopped by filtering using a Brandell Cell Harvester. The samples were filtered under vacuum over glass fibre filters (Whatman GF/B) presoaked for 2 hours in 0.3% polyethylenimine (PEI) in 50 mM Tris buffer (pH7.4). The filters were then washed 3 times with 5 mL ice cold 50 mM Tris buffer (pH7.4). Individual filter disks were put in scintillation vials (Biovials, Bechman). Ready Protein Plus liquid scintillant (5 mL, Beckman) was added and the vials counted by liquid scintillation spectrophotometry (Beckman LSC 6500) after equilibrating for three hours at room temperature to determine total binding (BT).
# This assay employed the same procedures as the non-specific binding assay for D4 with the exception that 2 μM (final conc.) of (-) sulpiride (Research Chemicals Inc.) was used in place of dopamine.
# (§3) The incubation was started by the addition to 12×75 mm polypropylene tubes 500 μl (50 μg protein) membrane homogenate to a solution of 400 μl incubation buffer, 100 μl (0.25 final conc.) ^3 H-spiperone (90 Ci/mmol, Amersham, diluted in borosilicate glass vial to) and […] of test compound that was prepared from 1 mM stock dissolved in DMSO and stored at -20° C. in polypropylene cryogenic storage vials until dilution in incubation buffer in borosilicate glass vials. The tubes were vortexed and incubated at room temperature for 90 minutes at which time the binding reaction was stopped by filtering. The filters were washed and counted using the same procedure as in the total binding assay described above to give the displacement binding value (BD).
# (§4) IC50 was determined from an inhibition response curve, logit-log plot of %B/BO vs concentration of test compound.
# (§5) Ki was calculated by the Cheng and Prustoff transformation: […]
# (§6) where [L] is the concentration of ^3 H-spiperone used in the assay and KD is the dissociation constant of ^3 H-spiperone determined independently under the same binding conditions.
# [2] = target: T1, human D4 receptor (D4.2 sub-type) (Homo sapiens, UniProt P21917, DEL265-296); test: Receptor Binding Assay: displacement of 3H-spiperone, D4 receptor; settings: for pKi: 3H-spiperone displacement, HEK 298 cells transfected with human D4.2, read-out: Ki (D4 affinity)
# T1 construct: expressed in transfected cells; cell homogenate
# T1 sequence (P21917 with tags, fused parts or gaps DEL265-296): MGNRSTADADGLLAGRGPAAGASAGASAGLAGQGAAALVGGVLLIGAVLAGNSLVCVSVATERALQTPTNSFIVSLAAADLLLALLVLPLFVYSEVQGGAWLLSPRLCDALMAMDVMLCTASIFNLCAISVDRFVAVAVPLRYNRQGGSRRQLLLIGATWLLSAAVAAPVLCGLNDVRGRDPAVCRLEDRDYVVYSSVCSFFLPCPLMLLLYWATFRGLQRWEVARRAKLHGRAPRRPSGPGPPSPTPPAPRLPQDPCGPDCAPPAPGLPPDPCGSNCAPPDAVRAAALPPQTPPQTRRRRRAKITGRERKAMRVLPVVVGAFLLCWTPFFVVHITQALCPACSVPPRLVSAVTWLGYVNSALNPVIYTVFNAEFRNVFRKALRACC
# Description: as §1
# The cells were then centrifuged in a Sorval centrifuge for 10 minutes, 5000 rpm (GS3 rotor) and the pellets quickly frozen in liquid nitrogen and stored at -80° C. until used in binding assay. When used in the assay, cells were thawed on ice for 20 minutes and then 10 mL of incubation buffer (50 mM Tris, 1 mM EDTA, 4 mM MgCl2, 5 mM KCl, 1.5 mM CaCl2, 120 mM NaCl, pH7.4) was added. […] Concentration of receptor protein was determined using the Pierce BCA assay.
# as §2
# The tubes were vortexed and incubated at room temperature for 90 minutes at which time the binding reaction was stopped by filtering. The filters were washed and counted using the same procedure as in the total binding assay described above to give the non-specific binding value (NSB).
# as §3, §4, §5, §6
# [3] = target: D4 receptor; settings: background; both products approximately; cited from earlier work
# [4] = test system: D2 receptor; settings: background; both products; cited from earlier work
D2/D4 (selectivity) [1],pKi [2],Compound,D4 selectivity relative to the D2 receptor (in words) [1],D4 selectivity compared with clozapine (in words) [1],D4 affinity compared with clozapine (in words) [2],pKi [3],preference for binding the D4 receptor relative to the D2 receptor [4]
20.0,7.66,"CCCCCCN1CCN(C2=Nc3ccccc3Oc3ccccc32)CC1 [11-(4-hexyl-1-piperazinyl)dibenz[b,f][1,4]oxazepine]",bind to the D4 receptor selectively relative to the D2 receptor,better D4 affinity and selectivity than clozapine,better D4 affinity and selectivity than clozapine,,
3.9,6.64,"CCCCCCCCCN1CCN(C2=Nc3ccccc3Oc3c(Cl)cccc32)CC1 [4-chloro-11-(4-nonyl-1-piperazinyl)dibenz[b,f][1,4]oxazepine]",bind to the D4 receptor selectively relative to the D2 receptor,better D4 selectivity than clozapine,,,
,,CN1CCN(C2=Nc3cc(Cl)ccc3Oc3ccccc32)CC1 [isoloxapine],,,,~7.70,about 10 fold
31.8,7.49,"CCCCCCN1CCN(C2=Nc3ccccc3Oc3c(Cl)cccc32)CC1 [4-chloro-11-(4-hexyl-1-piperazinyl)dibenz[b,f][1,4]oxazepine]",bind to the D4 receptor selectively relative to the D2 receptor,better D4 selectivity than clozapine,,,
30.0,7.74,"CCCCCCCCCN1CCN(C2=Nc3cc(Cl)ccc3Oc3ccccc32)CC1 [8-chloro-11-(4-nonyl-1-piperazinyl)dibenz[b,f][1,4]oxazepine]",bind to the D4 receptor selectively relative to the D2 receptor,better D4 affinity and selectivity than clozapine,better D4 affinity and selectivity than clozapine,,
3.9,6.96,"CCCCCCCCCN1CCN(C2=Nc3ccccc3Oc3ccccc32)CC1 [11-(4-nonyl-1-piperazinyl)dibenz[b,f][1,4]oxazepine]",bind to the D4 receptor selectively relative to the D2 receptor,,,,
,,"CCCCCCCN1CCN(C2=Nc3ccccc3Oc3ccccc32)CC1 [11-(4-heptyl-1-piperazinyl)dibenz[b,f][1,4]oxazepine]",bind to the D4 receptor selectively relative to the D2 receptor,,,,
,,"CCCCCCCCN1CCN(C2=Nc3ccccc3Oc3ccccc32)CC1 [11-(4-octyl-1-piperazinyl)dibenz[b,f][1,4]oxazepine]",bind to the D4 receptor selectively relative to the D2 receptor,,,,
